{"source": "patent US12595251B2", "about": "“Amidines and amidine analogs for the treatment of bacterial infections and potentiation antibiotics” (GEORGIA STATE UNIVERSITY RESEARCH FOUNDATION, INC., priority 2018, dated 2026)", "key": {"3T3 cells": {"tested_on": "3T3 cells", "test": "Cytotoxicity in 3T3 cells (CCK-8, 24 h)", "type": "cell-based", "conditions": "for 3T3 cytotoxicity at 100 μM (\"100 μM result in x%\"): NT=not toxic", "experimental": "(§1) H9c2 (ATCC®R-1446™) cells Were used in the studies. The H9c2 cells were maintained in DMEM (Dulbeccoa's Modified Eagle's Medium) supplemented with 10% fetal bovine serum (Mid Sci; S01520HI) and 1% penicillin-streptomycin (Sigma-Aldrich; P4333) at 37° C. with 5% CO2. The H9c2 cells were seeded in 96-well plate one day before the experiment. Different concentrations of di-amidine compounds were added into the H9c2 cells. The cells were then incubated with the compounds for 24 h at 37° C. with 5% CO2. The cell viability was tested by the CCK-8. Specifically, after 24 h incubation, 10 μL CCK-8 was added to each well. After 3 h incubation at 37° C., the absorbance at 450 nm was recorded by a plate reader. The cytoxicity in HEK293 and 3T3 cells was measured using the same procedure. Data is shown in Table 5 (NT=not toxic; --=not tested)."}, "HEK293 cells": {"tested_on": "HEK293 cells", "test": "Cytotoxicity in HEK293 cells (CCK-8, 24 h)", "type": "cell-based", "conditions": "for HEK293 cytotoxicity at 100 μM (\"100 μM result in x%\"): NT=not toxic", "experimental": "as §1"}, "H9c2 cells": {"tested_on": "H9c2 cells", "test": "Cytotoxicity in H9c2 cells (CCK-8, 24 h)", "type": "cell-based", "experimental": "as §1"}, "MRSA": {"tested_on": "MRSA", "test": "Sensitization of MRSA toward antibiotics (OD600, 24 h)", "type": "cell-based, Staphylococcus aureus", "conditions": "for Sensitization fold, MRSA towards rifampicin: compound at 10 μg/ml", "experimental": "(§2) Bacteria was cultured with rifampicin at various concentrations in the presence or absence of Compound M-1 for 24 hours at 37° C. and bacterial growth density was determined by measuring OD600. The y-axis is growth density measured in percent. The x-axis is rifampicin concentration measured in micrograms per milliliter (***: p<0.01).\nCompound M-1 (2.7 μg/ml) sensitizes MRSA towards existing antibiotics such as rifampicin (32-fold) (FIG. 22B) and trovafloxacin (16-fold). Rifampicin is the first line of defense against MRSA and many MRSA stains grow resistance to rifampicin through overexpression of efflux pump and other mechanisms. Combined with Compound M-1, rifampicin can be used more effectively against MRSA."}, "wild type B. subtilis [1]": {"tested_on": "wild type B. subtilis", "test": "Sensitization of B. subtilis toward antibiotics (MIC, OD600, 24 h)", "type": "cell-based, Bacillus subtilis", "conditions": "for Sensitization effect on B. subtilis: compound at 10 μg/ml", "experimental": "as §2, with “FIG. 22A is a bar graph showing that Compound M-1 sensitizes B. subtilis towards rifampicin as described in Example 13. Bacteria” for “Bacteria”\nCompound M-1 can sensitize Gram-positive bacteria such as B. subtilis towards traditional antibiotics. […] The sensitization fold is 32-fold for Compound M-1 and the FIC index is 0.14."}, "E. coli": {"tested_on": "E. coli", "test": "Sensitization of E. coli to erythromycin (sensitization fold from IC90, OD600, 20 h)", "type": "cell-based, Escherichia coli", "conditions": "general statement on amidine substitution or ring restraint", "experimental": "E. coli bacteria were cultured in Miller's broth at 37° C. overnight prior to treatment. B. subtilis bacteria were cultured in nutrient broth at 37° C. overnight prior to treatment. […] Bacterial density was measured based on OD600."}, "wild type B. subtilis [2]": {"tested_on": "wild type B. subtilis", "test": "Sensitization of B. subtilis toward antibiotics (MIC, OD600, 24 h)", "type": "cell-based, Bacillus subtilis"}, "wild-type E. coli": {"tested_on": "wild-type E. coli", "test": "Sensitization of wild-type E. coli toward antibiotics (MIC of antibiotic with/without sensitizer)", "type": "cell-based, Escherichia coli", "conditions": "for MIC: Escherichia coli", "experimental": "Bacteria were cultured with the antibiotic at various concentrations in the presence or absence of bacterial sensitizer for 24 hours at 37° C. Bacterial growth density was determined by measuring OD600 (absorbance measured at a wavelength of 600 nm). […]\nThe formula for calculating FIC is shown below: […]"}, "B. subtilis": {"tested_on": "B. subtilis", "test": "B. subtilis viability with antibiotic in absence or presence of compound (OD600, 20 h)", "type": "cell-based, Bacillus subtilis", "conditions": "M-1 12.5 or 6 μM; A-2 6 or 12.5 μM; A-8; 20 h", "experimental": "Bacterial viability was then determined by measuring density using OD600. […] B. subtilis was also cultured with either novobiocin or tetracycline at varying concentrations either in the absence or presence of compound M-1 (12.5 μM) for 20 hours. Bacterial viability was subsequently determined by measuring density using OD600.\nBacterial viability was then determined by measuring density using OD600."}}, "note": "Structures can show the parent of a compound that is named as a salt. Where two headings read alike, the source gives them in different places."}
{"smiles": "Cc1cc(OCc2ccc(C(=N)N)cc2)cc(OCc2ccc(C(=N)N)cc2)c1", "note": "[drawing 877]", "values": [{"measurement": "3T3 cytotoxicity at 100 μM (\"100 μM result in x%\")", "setting": "3T3 cells", "result": 100, "unit": "UM result in 10%"}]}
{"smiles": "Cc1cc(COc2ccc(C(=N)N)cc2)cc(COc2ccc(C(=N)N)cc2)c1", "note": "[drawing 863]", "values": [{"measurement": "HEK293 cytotoxicity at 100 μM (\"100 μM result in x%\")", "setting": "HEK293 cells", "result": 100, "unit": "μM result in 20%"}, {"measurement": "H9c2 CC^50", "setting": "H9c2 cells", "result": 50, "unit": "µM"}, {"measurement": "3T3 cytotoxicity at 100 μM (\"100 μM result in x%\")", "setting": "3T3 cells", "result": 100, "unit": "μM result in 20%"}]}
{"smiles": "Cc1cc(COc2ccc(C3=NCCCN3)cc2)cc(COc2ccc(C3=NCCCN3)cc2)c1", "note": "[Compound B-21, 2,2′-((((5-Methyl-1,3-phenylene)bis(methylene))bis(oxy))bis(4,1-phenylene))bis(1,4,5,6-tetrahydropyrimidine) dihydrochloride]", "values": [{"measurement": "Sensitization fold, MRSA towards rifampicin", "setting": "MRSA", "result": 16, "unit": "fold"}, {"measurement": "Sensitization effect on B. subtilis", "setting": "wild type B. subtilis [1]", "result": "no effect"}, {"measurement": "Ability to sensitize Gram-negative bacteria (while preserving ability to sensitize some Gram-positive bacteria)", "setting": "E. coli", "result": "greatly decrease, or even abolish"}]}
{"smiles": "N=C(N)c1ccc(OCc2ccc(COc3ccc(C(=N)N)cc3)cc2)cc1", "note": "[drawing 869]", "values": [{"measurement": "HEK293 cytotoxicity at 100 μM (\"100 μM result in x%\")", "setting": "HEK293 cells", "result": 100, "unit": "μM result in 30%"}, {"measurement": "H9c2 CC^50", "setting": "H9c2 cells", "result": 50, "unit": "µM"}, {"measurement": "3T3 cytotoxicity at 100 μM (\"100 μM result in x%\")", "setting": "3T3 cells", "result": 100, "unit": "result in 10%"}]}
{"smiles": "CC[C@H]1OC(=O)[C@H](C)[C@@H](O[C@H]2C[C@@](C)(OC)[C@@H](O)[C@H](C)O2)[C@H](C)[C@@H](O[C@@H]2O[C@H](C)C[C@H](N(C)C)[C@H]2O)[C@](C)(O)C[C@@H](C)C(=O)[C@H](C)[C@@H](O)[C@]1(C)O", "note": "[Erythromycin, erythromycin]", "values": [{"measurement": "MIC of antibiotic on B. subtilis in the presence of Compound M-1", "setting": "wild type B. subtilis [1]; 5.5 μg/ml Compound M-1", "result": 1.5, "unit": "µg/mL"}, {"measurement": "MIC of antibiotic on B. subtilis in the absence of Compound M-1", "setting": "wild type B. subtilis [2]; antibiotic alone", "result": 50, "unit": "µg/mL"}, {"measurement": "MIC", "setting": "wild-type E. coli; antibiotic alone, wild-type E. coli, read-out: MIC of AB only", "result": 50, "unit": "µg/mL"}, {"measurement": "MIC", "setting": "wild-type E. coli; read-out: MIC of AB with Compound C (5 μg/ml), antibiotic plus Compound C 5 μg/ml, wild-type E. coli", "result": 0.4, "unit": "µg/mL"}, {"measurement": "FIC", "setting": "wild-type E. coli; fractional inhibitory concentration, antibiotic plus Compound C 5 μg/ml, wild-type E. coli", "result": 0.11}]}
{"smiles": "Cc1cc(CCc2ccc(C(=N)N)cc2)cc(CCc2ccc(C(=N)N)cc2)c1", "note": "[drawing 876]", "values": [{"measurement": "HEK293 CC^50", "setting": "HEK293 cells", "result": 50, "unit": "µM"}, {"measurement": "3T3 CC^50", "setting": "3T3 cells", "result": 50, "unit": "µM"}]}
{"smiles": "CCCNC(=N)c1ccc(COc2cc(C)cc(OCc3ccc(C(=N)NCCC)cc3)c2)cc1", "note": "[Compound E-13, 1,3-Bis {(4-n-propylamidino)-benzyloxy}-5-methylbenzene dihydrochloride]", "values": [{"measurement": "Sensitization fold, MRSA towards rifampicin", "setting": "MRSA", "result": 16, "unit": "fold"}, {"measurement": "Sensitization effect on B. subtilis", "setting": "wild type B. subtilis [1]", "result": "no effect"}, {"measurement": "Ability to sensitize Gram-negative bacteria (while preserving ability to sensitize some Gram-positive bacteria)", "setting": "E. coli", "result": "greatly decrease, or even abolish"}]}
{"smiles": "Cc1cc(COc2ccc(C3=NCCN3)cc2)cc(COc2ccc(C3=NCCN3)cc2)c1", "note": "[drawing 864]", "values": [{"measurement": "H9c2 CC^50", "setting": "H9c2 cells", "result": 25, "unit": "µM"}, {"measurement": "3T3 CC^50", "setting": "3T3 cells", "result": 25, "unit": "µM"}]}
{"smiles": "Cc1cc(COc2ccc(C3=NCCN3)cc2)cc(COc2ccc(C3=NCCN3)cc2)c1", "note": "[Compound A-2, 2,2′-((((5-Methyl-1,3-phenylene)bis(methylene))bis(oxy))bis(4,1-phenylene))bis(4,5-dihydro-1H-imidazole) Dihydrochloride]", "values": [{"measurement": "B. subtilis growth inhibition, compound in combination with erythromycin vs erythromycin alone", "setting": "B. subtilis", "result": "significant bacterial growth inhibition"}, {"measurement": "Ability to sensitize Gram-negative bacteria (while preserving ability to sensitize some Gram-positive bacteria)", "setting": "E. coli", "result": "greatly decrease, or even abolish"}]}
{"smiles": "Cc1cc(COc2ccc(CN)cc2)cc(COc2ccc(CN)cc2)c1", "note": "[Compound E-11, 1,3-Bis {(4-methanamine)-phenoxymethyl}-5-methylbenzene dihydrochloride]", "values": [{"measurement": "Sensitization effect on MRSA", "setting": "MRSA; compound at 5 μg/ml", "result": "no effect"}, {"measurement": "Sensitization fold, B. subtilis towards erythromycin", "setting": "wild type B. subtilis [2]; compound at 5 μg/ml", "result": 32, "unit": "fold"}]}
{"smiles": "COc1cc(C(=N)N)ccc1OCc1cc(C)cc(COc2ccc(C(=N)N)cc2OC)c1", "note": "[drawing 871]", "values": [{"measurement": "HEK293 cytotoxicity at 100 μM (\"100 μM result in x%\")", "setting": "HEK293 cells", "result": 100, "unit": "μM result in 10%"}]}
